Data on one compound can be found in ChEMBL document CHEMBL4765305, “Elephantopinolide A-P, germacrane-type sesquiterpene lactones from Elephantopus scaber induce apoptosis, autophagy and G2/M phase arrest in hepatocellular carcinoma cells” (Eur J Med Chem, 2020).

SMILES strings stand for the structures. Activity calls are given as the source filed them. No cut-off for these calls is given here.

In assay [1] the test system is Hep 3B2. The experiment in a line: Anti-hepatoma activity against human Hep3B cells assessed as cell growth inhibition by MTT assay. In kind it is functional, cell-based. For orientation: Tetrazolium dyes change colour on reduction, which living cells bring about.
Assay [2] deals with HepG2. In words: Induction of apoptosis in human HepG2 cells assessed as nuclear condensation at 3 to 9 uM incubated for 48 hrs by Hoechst 33258 staining based fluorescence microscopy analysis. As to conditions: dose 3-9 µM. Format: functional, cell-based.
For assay [3], the system named is Hep 3B2. In words: Induction of apoptosis in human Hep3B cells assessed as early apoptotic cells at 9 uM incubated for 48 hrs by AnnexinV-FITC and propidium iodide staining based flow cytometry analysis (reference value: 3.05%). Format: functional. (In flow cytometry, cells or beads pass a laser one at a time.)
The subject of assay [4] is Hep 3B2. In words: Induction of apoptosis in human Hep3B cells assessed as late apoptotic cells at 3 uM incubated for 48 hrs by AnnexinV-FITC and propidium iodide staining based flow cytometry analysis (reference value: 3.32%). Format: functional.
The test system of assay [5] is HepG2. The experiment in a line: Induction of apoptosis in human HepG2 cells assessed as late apoptotic cells at 3 uM incubated for 48 hrs by AnnexinV-FITC and propidium iodide staining based flow cytometry analysis (reference value: 2.46%). In kind it is functional.
Assay [6] deals with HepG2. The experiment in a line: Induction of apoptosis in human HepG2 cells assessed as increase in caspase-3 activity measured after 2 hrs by microplate reader. The following applies: dose 3-9 µM. Format: functional, cell-based.
Assay [7] deals with HepG2. The experiment in a line: Induction of apoptosis in human HepG2 cells assessed as increase in FADD level measured by western blot analysis. Format: functional, cell-based. As to conditions: dose 3-9 µM.
Assay [8] deals with Hep 3B2. In words: Induction ROS generation in human Hep3B cells assessed as intracellular ROS level measured after 4 hrs by H2DCF-DA probe based flow cytometry (reference value: 4.24 %). In kind it is functional.
For assay [9], the system named is Hep 3B2. The experiment in a line: Induction ROS generation in human Hep3B cells assessed as intracellular ROS level measured after 2 hrs by H2DCF-DA probe based flow cytometry (reference value: 4.24 %). Format: functional.
Assay [10] deals with Hep 3B2. The experiment in a line: Induction ROS generation in human Hep3B cells assessed as intracellular ROS level measured after 1 hrs by H2DCF-DA probe based flow cytometry (reference value: 4.24 %). In kind it is functional.
Assay [11] deals with Hep 3B2. In words: Induction of mitochondrial membrane potential loss in human Hep3B cells measured after 48 hrs by JC-1 staining based flow cytometry analysis. In kind it is functional, cell-based. The following applies: dose 3-9 µM.
Assay [12] relates to HepG2. In words: Induction ROS generation in human HepG2 cells assessed as intracellular ROS level measured after 2 hrs by H2DCF-DA probe based flow cytometry (reference value: 5.05%). Format: functional.

The term IC50 denotes the concentration that gives 50% inhibition.

With `C=C(C)C(=O)O[C@H]1CC2=C[C@@H](C[C@@]3(C)O[C@H]3[C@H]3OC(=O)C(=C)[C@@H]31)OC2=O`, in the assay with Hep 3B2 [1], the IC50 was determined as 1.98 µM. For the same compound, in the assay with HepG2 [2], the outcome was Active. Also, the Activity in the assay with Hep 3B2 [3] was 15.5%; in the assay on Hep 3B2 [4], 5.56%; in the assay with HepG2 [5], 4.56%; in the assay on HepG2 [6] it was “Dose-dependent effect”; in the assay with HepG2 [7] it was “Dose-dependent effect”; in the assay with Hep 3B2 [8] it was 5.04%. In addition, the Activity in the assay on Hep 3B2 [9] was 7.42%; in the assay with Hep 3B2 [10] it was 9.85%; in the assay with Hep 3B2 [11], “Dose-dependent effect”; in the assay on HepG2 [12], 13.1%.
